According to PMC5578959, “Selective LRRK2 kinase inhibition reduces phosphorylation of endogenous Rab10 and Rab12 in human peripheral mononuclear blood cells” (Scientific Reports, 2017):

Experiments:
Assay in all cases: KiNativ profiling in human PBMCs
Type in all cases: binding
[1] = system: T1, ACK; conditions: Lys1
T1 construct: purchased ActivX Technologies (KiNativ)
In short: (§1)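 Compound was applied to living PBMCs at 0.1 µM or 1 µM. Occupancy of kinases was then assessed by KiNativ.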

[2] = system: T2, AKT1; conditions: ATP Loop
T2 construct: purchased ActivX Technologies (KiNativ)
In short: as §1

[3] = system: T3, ARAF; conditions: Lys2
T3 construct: purchased ActivX Technologies (KiNativ)
In short: as §1

[4] = system: T4, BRAF; conditions: Lys2
T4 construct: purchased ActivX Technologies (KiNativ)
In short: as §1

[5] = system: T5, CDK2
T5 construct: purchased ActivX Technologies (KiNativ)
In short: as §1

[6] = system: T6, CDK5
T6 construct: purchased ActivX Technologies (KiNativ)
In short: as §1

[7] = system: T7, CK1g2; conditions: Lys2
T7 construct: purchased ActivX Technologies (KiNativ)
In short: as §1

[8] = system: T8, CaMK2g; conditions: Lys1
T8 construct: purchased ActivX Technologies (KiNativ)
In short: as §1

[9] = system: T9, Erk1; conditions: Lys2
T9 construct: purchased ActivX Technologies (KiNativ)
In short: as §1

[10] = system: T10, FER
T10 construct: purchased ActivX Technologies (KiNativ)
In short: as §1

[11] = system: T11, HPK1
T11 construct: purchased ActivX Technologies (KiNativ)
In short: as §1

[12] = system: T12, IKKb; conditions: Lys2
T12 construct: purchased ActivX Technologies (KiNativ)
In short: as §1

[13] = system: T13, ILK
T13 construct: purchased ActivX Technologies (KiNativ)
In short: as §1

[14] = system: KSR1,KSR2; conditions: Activation Loop
In short: as §1

[15] = system: T14, LATS2; conditions: Lys2
T14 construct: purchased ActivX Technologies (KiNativ)
In short: as §1

[16] = system: T15, LYN
T15 construct: purchased ActivX Technologies (KiNativ)
In short: as §1

[17] = system: T16, MAP2K3
T16 construct: purchased ActivX Technologies (KiNativ)
In short: as §1

[18] = system: T17, MAP2K5; conditions: Lys2
T17 construct: purchased ActivX Technologies (KiNativ)
In short: as §1

[19] = system: T18, MAP2K6
T18 construct: purchased ActivX Technologies (KiNativ)
In short: as §1

[20] = system: T19, MAP2K7; conditions: Lys2
T19 construct: purchased ActivX Technologies (KiNativ)
In short: as §1

[21] = system: MAP3K15,MAP3K5,MAP3K6; conditions: Lys1
In short: as §1

[22] = system: MARK1,MARK2; conditions: Lys1
In short: as §1

[23] = system: T20, MARK2; conditions: Lys1
T20 construct: purchased ActivX Technologies (KiNativ)
In short: as §1

[24] = system: T21, MARK3; conditions: Lys1
T21 construct: purchased ActivX Technologies (KiNativ)
In short: as §1

[25] = system: T22, NDR1
T22 construct: purchased ActivX Technologies (KiNativ)
In short: as §1

[26] = system: T23, NuaK2; conditions: Lys1
T23 construct: purchased ActivX Technologies (KiNativ)
In short: as §1

[27] = system: T24, PIK3CD; conditions: ATP
T24 construct: purchased ActivX Technologies (KiNativ)
In short: as §1

[28] = system: T25, PITSLRE; conditions: Lys2
T25 construct: purchased ActivX Technologies (KiNativ)
In short: as §1

[29] = system: T26, PRP4; conditions: Other
T26 construct: purchased ActivX Technologies (KiNativ)
In short: as §1

[30] = system: T27, RIPK3; conditions: Lys2
T27 construct: purchased ActivX Technologies (KiNativ)
In short: as §1

[31] = system: T28, RSKL1 domain1; conditions: Protein Kinase Domain
T28 construct: RSKL1 domain1; purchased ActivX Technologies (KiNativ)
In short: as §1

[32] = system: T29, SNRK; conditions: Lys2
T29 construct: purchased ActivX Technologies (KiNativ)
In short: as §1

[33] = system: T30, YANK3; conditions: Lys2
T30 construct: purchased ActivX Technologies (KiNativ)
In short: as §1

[34] = system: T31, p38a
T31 construct: purchased ActivX Technologies (KiNativ)
In short: as §1

[35] = system: T32, smMLCK
T32 construct: purchased ActivX Technologies (KiNativ)
In short: as §1

Cc1cccc(-c2cc(Nc3ccn(C)n3)nc3[nH]cc(C#N)c23)c1 [Lu AF58786]
Inhibition ([1]; 0.1µM): -14.9%
Inhibition ([1]; 1µM): -10.3%
Inhibition ([2]; 0.1µM): 7.0%
Inhibition ([2]; 1µM): -7.5%
Inhibition ([3]; 0.1µM): -4.9%
Inhibition ([3]; 1µM): -4.5%
Inhibition ([4]; 0.1µM): 6.1%
Inhibition ([4]; 1µM): -13.8%
Inhibition ([5]; 0.1µM, Lys1): 5.0%
Inhibition ([5]; 0.1µM, Lys2): 7.1%
Inhibition ([5]; 1µM, Lys1): 9.2%
Inhibition ([5]; 1µM, Lys2): 5.2%
Inhibition ([6]; 0.1µM, Lys1): 15.8%
Inhibition ([6]; 0.1µM, Lys2): 2.3%
Inhibition ([6]; 1µM, Lys1): 17.6%
Inhibition ([6]; 1µM, Lys2): 2.5%
Inhibition ([7]; 0.1µM): 5.2%
Inhibition ([7]; 1µM): -0.12%
Inhibition ([8]; 0.1µM): 3.3%
Inhibition ([8]; 1µM): -7.2%
Inhibition ([9]; 0.1µM): 2.3%
Inhibition ([9]; 1µM): 1.5%
Inhibition ([10]; 0.1µM, Activation Loop): -5.4%
Inhibition ([10]; 0.1µM, Lys1): 1.7%
Inhibition ([10]; 1µM, Activation Loop): -16.1%
Inhibition ([10]; 1µM, Lys1): 5.0%
Inhibition ([11]; 0.1µM, Lys2): 13.0%
Inhibition ([11]; 1µM, Lys1): 8.1%
Inhibition ([11]; 1µM, Lys2): 21.1%
Inhibition ([12]; 0.1µM): 11.5%
Inhibition ([12]; 1µM): -4.3%
Inhibition ([13]; 0.1µM, Lys1): 2.8%
Inhibition ([13]; 0.1µM, Protein Kinase Domain): -27.2%
Inhibition ([13]; 1µM, Lys1): 5.7%
Inhibition ([13]; 1µM, Protein Kinase Domain): -1.7%
Inhibition ([14]; 0.1µM): 12.4%
Inhibition ([14]; 1µM): -3.6%
Inhibition ([15]; 0.1µM): 9.3%
Inhibition ([15]; 1µM): -1.5%
Inhibition ([16]; 0.1µM, Activation Loop): -18.7%
Inhibition ([16]; 0.1µM, Lys1): -21.4%
Inhibition ([16]; 1µM, Activation Loop): 1.0%
Inhibition ([16]; 1µM, Lys1): -4.5%
Inhibition ([17]; 0.1µM, Lys1): -31.6%
Inhibition ([17]; 0.1µM, Lys2): -1.9%
Inhibition ([17]; 1µM, Lys1): -37.3%
Inhibition ([17]; 1µM, Lys2): 0.27%
Inhibition ([18]; 0.1µM): -0.318%
Inhibition ([18]; 1µM): 17.4%
Inhibition ([19]; 0.1µM, Lys1): 2.0%
Inhibition ([19]; 0.1µM, Lys2): 5.6%
Inhibition ([19]; 1µM, Lys1): 2.8%
Inhibition ([19]; 1µM, Lys2): -7.5%
Inhibition ([20]; 0.1µM): 18.1%
Inhibition ([20]; 1µM): -7.3%
Inhibition ([21]; 0.1µM): 12.0%
Inhibition ([21]; 1µM): 11.6%
Inhibition ([22]; 0.1µM): 16.5%
Inhibition ([22]; 1µM): 7.1%
Inhibition ([23]; 0.1µM): -6.2%
Inhibition ([23]; 1µM): -21.2%
Inhibition ([24]; 0.1µM): 2.1%
Inhibition ([24]; 1µM): 3.2%
Inhibition ([25]; 0.1µM, Lys1): 0.33%
Inhibition ([25]; 0.1µM, Lys2): 16.5%
Inhibition ([25]; 1µM, Lys1): -11.0%
Inhibition ([25]; 1µM, Lys2): 0.751%
Inhibition ([26]; 0.1µM): 20.0%
Inhibition ([26]; 1µM): 38.2%
Inhibition ([27]; 0.1 µM, TKVNWLAHNVSKDNRQ): -4.8%
Inhibition ([27]; 0.1 µM, VNWLAHNVSKDNRQ): 8.9%
Inhibition ([27]; 1 µM, TKVNWLAHNVSKDNRQ): 14.4%
Inhibition ([27]; 1 µM, VNWLAHNVSKDNRQ): 18.8%
Inhibition ([28]; 0.1µM): 2.7%
Inhibition ([28]; 1µM): -9.8%
Inhibition ([29]; 0.1 µM): -2.3%
Inhibition ([29]; 1 µM): 3.0%
Inhibition ([30]; 0.1µM): 2.4%
Inhibition ([30]; 1µM): -10.9%
Inhibition ([31]; 0.1µM): 15.2%
Inhibition ([31]; 1µM): 1.9%
Inhibition ([32]; 0.1µM): 22.5%
Inhibition ([32]; 1µM): 15.1%
Inhibition ([33]; 0.1µM): 11.1%
Inhibition ([33]; 1µM): -8.5%
Inhibition ([34]; 0.1µM, Lys2): 0.7%
Inhibition ([34]; 0.1 µM, Other): -1.7%
Inhibition ([34]; 1µM, Lys2): -4.6%
Inhibition ([34]; 1 µM, Other): -7.7%
Inhibition ([35]; 0.1µM, Lys1): 1.6%
Inhibition ([35]; 0.1µM, Lys2): 3.0%
Inhibition ([35]; 1µM, Lys1): 18.7%
Inhibition ([35]; 1µM, Lys2): -2.1%
